{
  "source": "ChEMBL document CHEMBL1909046",
  "about": "“DrugMatrix in vitro pharmacology data”",
  "data": [
    {"test_system": "not listed separately", "assay": "DRUGMATRIX: Glutamate, NMDA, Agonism radioligand binding (ligand: [3H] CGP-39653)", "format": "cell membranes, Rattus norvegicus, Wistar, Cerebral cortex, Membrane", "details": "Not Active = under 50% inhibition at 10 µM", "values": [
      {"smiles": "COc1cccc2c1C(=O)c1c(O)c3c(c(O)c1C2=O)C[C@@](O)(C(C)=O)C[C@@H]3O[C@H]1C[C@H](N)[C@H](O)[C@H](C)O1", "note": "[DAUNORUBICIN]", "IC50": "Not Active", "Ki": "Not Active"},
      {"smiles": "O=C(O)c1cc(-c2ccc(F)cc2F)ccc1O", "note": "[DIFLUNISAL]", "IC50": "Not Active", "Ki": "Not Active"},
      {"smiles": "C[S+](C)[O-]", "note": "[DIMETHYL SULFOXIDE]", "IC50": "Not Active", "Ki": "Not Active"},
      {"smiles": "CC1=NN(c2ccccc2)C(=O)C1", "note": "[EDARAVONE]", "IC50": "Not Active", "Ki": "Not Active"},
      {"smiles": "CC(C)C[C@H]1C(=O)N2CCC[C@H]2[C@]2(O)O[C@](NC(=O)[C@@H]3C=C4c5cccc6[nH]cc(c56)C[C@H]4N(C)C3)(C(C)C)C(=O)N12", "note": "[ERGOCRYPTINE]", "IC50": "Not Active", "Ki": "Not Active"},
      {"smiles": "C[C@]12CC[C@@H]3c4ccc(O)cc4CC[C@H]3[C@@H]1C[C@@H](O)[C@@H]2O", "note": "[ESTRIOL]", "IC50": "Not Active", "Ki": "Not Active"},
      {"smiles": "CC(O)(P(=O)(O)O)P(=O)(O)O", "note": "[ETIDRONIC ACID]", "IC50": "Not Active", "Ki": "Not Active"}
    ]},
    {"target": "Beta-2 adrenergic receptor (Homo sapiens, UniProt P07550)", "sequence (P07550 whole entry)": "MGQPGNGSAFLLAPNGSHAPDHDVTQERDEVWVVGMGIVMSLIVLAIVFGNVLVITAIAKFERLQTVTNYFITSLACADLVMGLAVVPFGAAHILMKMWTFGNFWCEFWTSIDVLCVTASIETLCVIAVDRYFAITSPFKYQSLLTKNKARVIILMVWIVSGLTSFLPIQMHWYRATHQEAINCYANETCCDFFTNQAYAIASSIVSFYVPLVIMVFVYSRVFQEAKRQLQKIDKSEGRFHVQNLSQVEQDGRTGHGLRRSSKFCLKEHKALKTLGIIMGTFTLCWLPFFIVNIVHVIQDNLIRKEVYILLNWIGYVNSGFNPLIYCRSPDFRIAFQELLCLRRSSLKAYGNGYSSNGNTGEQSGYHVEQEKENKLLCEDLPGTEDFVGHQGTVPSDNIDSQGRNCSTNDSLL", "assay": "DRUGMATRIX: Adrenergic beta2 radioligand binding (ligand: [3H] CGP-12177)", "format": "cell membranes, CHO, Membrane", "details": "cho; Not Active = under 50% inhibition at 10 µM", "values": [
      {"smiles": "COc1cccc2c1C(=O)c1c(O)c3c(c(O)c1C2=O)C[C@@](O)(C(C)=O)C[C@@H]3O[C@H]1C[C@H](N)[C@H](O)[C@H](C)O1", "note": "[DAUNORUBICIN]", "IC50": "Not Active"},
      {"smiles": "O=C(O)c1cc(-c2ccc(F)cc2F)ccc1O", "note": "[DIFLUNISAL]", "IC50": "Not Active"},
      {"smiles": "C[S+](C)[O-]", "note": "[DIMETHYL SULFOXIDE]", "IC50": "Not Active"},
      {"smiles": "CC1=NN(c2ccccc2)C(=O)C1", "note": "[EDARAVONE]", "IC50": "Not Active"},
      {"smiles": "CC(C)C[C@H]1C(=O)N2CCC[C@H]2[C@]2(O)O[C@](NC(=O)[C@@H]3C=C4c5cccc6[nH]cc(c56)C[C@H]4N(C)C3)(C(C)C)C(=O)N12", "note": "[ERGOCRYPTINE]", "IC50": "Not Active"},
      {"smiles": "C[C@]12CC[C@@H]3c4ccc(O)cc4CC[C@H]3[C@@H]1C[C@@H](O)[C@@H]2O", "note": "[ESTRIOL]", "IC50": "Not Active"},
      {"smiles": "CC(O)(P(=O)(O)O)P(=O)(O)O", "note": "[ETIDRONIC ACID]", "IC50": "Not Active"}
    ]},
    {"target": "Mitogen-activated protein kinase 14 (Homo sapiens, UniProt Q16539)", "sequence (Q16539 whole entry)": "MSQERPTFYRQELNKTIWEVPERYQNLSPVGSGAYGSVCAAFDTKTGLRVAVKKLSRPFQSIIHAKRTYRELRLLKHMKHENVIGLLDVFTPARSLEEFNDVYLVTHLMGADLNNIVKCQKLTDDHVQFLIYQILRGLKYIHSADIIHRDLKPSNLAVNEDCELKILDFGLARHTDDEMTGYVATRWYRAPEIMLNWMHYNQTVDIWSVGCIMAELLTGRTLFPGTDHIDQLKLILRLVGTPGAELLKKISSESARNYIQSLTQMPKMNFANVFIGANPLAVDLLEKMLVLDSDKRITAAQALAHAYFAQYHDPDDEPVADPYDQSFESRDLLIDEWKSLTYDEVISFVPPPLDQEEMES", "parameters": "species or system Escherichia coli", "details": "not given", "values": [
      {"smiles": "COc1cccc2c1C(=O)c1c(O)c3c(c(O)c1C2=O)C[C@@](O)(C(C)=O)C[C@@H]3O[C@H]1C[C@H](N)[C@H](O)[C@H](C)O1", "note": "[DAUNORUBICIN]", "IC50": "Not Active"},
      {"smiles": "O=C(O)c1cc(-c2ccc(F)cc2F)ccc1O", "note": "[DIFLUNISAL]", "IC50": "Not Active"},
      {"smiles": "C[S+](C)[O-]", "note": "[DIMETHYL SULFOXIDE]", "IC50": "Not Active"},
      {"smiles": "CC1=NN(c2ccccc2)C(=O)C1", "note": "[EDARAVONE]", "IC50": "Not Active"},
      {"smiles": "CC(C)C[C@H]1C(=O)N2CCC[C@H]2[C@]2(O)O[C@](NC(=O)[C@@H]3C=C4c5cccc6[nH]cc(c56)C[C@H]4N(C)C3)(C(C)C)C(=O)N12", "note": "[ERGOCRYPTINE]", "IC50": "Not Active"},
      {"smiles": "C[C@]12CC[C@@H]3c4ccc(O)cc4CC[C@H]3[C@@H]1C[C@@H](O)[C@@H]2O", "note": "[ESTRIOL]", "IC50": "Not Active"},
      {"smiles": "CC(O)(P(=O)(O)O)P(=O)(O)O", "note": "[ETIDRONIC ACID]", "IC50": "Not Active"}
    ]},
    {"target": "Protein phosphatase 3 catalytic subunit alpha (Homo sapiens, UniProt Q08209)", "parameters": "species or system Escherichia coli", "details": "not given", "values": [
      {"smiles": "COc1cccc2c1C(=O)c1c(O)c3c(c(O)c1C2=O)C[C@@](O)(C(C)=O)C[C@@H]3O[C@H]1C[C@H](N)[C@H](O)[C@H](C)O1", "note": "[DAUNORUBICIN]", "IC50": "Not Active"},
      {"smiles": "O=C(O)c1cc(-c2ccc(F)cc2F)ccc1O", "note": "[DIFLUNISAL]", "IC50": "Not Active"},
      {"smiles": "C[S+](C)[O-]", "note": "[DIMETHYL SULFOXIDE]", "IC50": "Not Active"},
      {"smiles": "CC1=NN(c2ccccc2)C(=O)C1", "note": "[EDARAVONE]", "IC50": "Not Active"},
      {"smiles": "CC(C)C[C@H]1C(=O)N2CCC[C@H]2[C@]2(O)O[C@](NC(=O)[C@@H]3C=C4c5cccc6[nH]cc(c56)C[C@H]4N(C)C3)(C(C)C)C(=O)N12", "note": "[ERGOCRYPTINE]", "IC50": "Not Active"},
      {"smiles": "C[C@]12CC[C@@H]3c4ccc(O)cc4CC[C@H]3[C@@H]1C[C@@H](O)[C@@H]2O", "note": "[ESTRIOL]", "IC50": "Not Active"},
      {"smiles": "CC(O)(P(=O)(O)O)P(=O)(O)O", "note": "[ETIDRONIC ACID]", "IC50": "Not Active"}
    ]},
    {"target": "T1, C-X-C chemokine receptor type 1 (Homo sapiens, UniProt P25024)", "T1 sequence (P25024 whole entry)": "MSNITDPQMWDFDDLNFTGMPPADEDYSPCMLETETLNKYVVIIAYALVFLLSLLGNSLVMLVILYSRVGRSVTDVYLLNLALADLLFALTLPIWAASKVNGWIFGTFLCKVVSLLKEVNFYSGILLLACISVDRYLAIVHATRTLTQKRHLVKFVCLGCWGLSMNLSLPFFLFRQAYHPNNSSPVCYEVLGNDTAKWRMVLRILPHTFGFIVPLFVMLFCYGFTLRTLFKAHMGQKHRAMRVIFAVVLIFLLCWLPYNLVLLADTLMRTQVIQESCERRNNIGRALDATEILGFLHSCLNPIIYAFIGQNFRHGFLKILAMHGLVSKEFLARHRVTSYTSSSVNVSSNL", "details": "not given", "values": [
      {"smiles": "COc1cccc2c1C(=O)c1c(O)c3c(c(O)c1C2=O)C[C@@](O)(C(C)=O)C[C@@H]3O[C@H]1C[C@H](N)[C@H](O)[C@H](C)O1", "note": "[DAUNORUBICIN]", "IC50": "Not Active"},
      {"smiles": "O=C(O)c1cc(-c2ccc(F)cc2F)ccc1O", "note": "[DIFLUNISAL]", "IC50": "Not Active"},
      {"smiles": "C[S+](C)[O-]", "note": "[DIMETHYL SULFOXIDE]", "IC50": "Not Active"},
      {"smiles": "CC1=NN(c2ccccc2)C(=O)C1", "note": "[EDARAVONE]", "IC50": "Not Active"},
      {"smiles": "CC(C)C[C@H]1C(=O)N2CCC[C@H]2[C@]2(O)O[C@](NC(=O)[C@@H]3C=C4c5cccc6[nH]cc(c56)C[C@H]4N(C)C3)(C(C)C)C(=O)N12", "note": "[ERGOCRYPTINE]", "IC50": "Not Active"},
      {"smiles": "C[C@]12CC[C@@H]3c4ccc(O)cc4CC[C@H]3[C@@H]1C[C@@H](O)[C@@H]2O", "note": "[ESTRIOL]", "IC50": "Not Active"},
      {"smiles": "CC(O)(P(=O)(O)O)P(=O)(O)O", "note": "[ETIDRONIC ACID]", "IC50": "Not Active"}
    ]},
    {"target": "Carbonic anhydrase 2 (Homo sapiens, UniProt P00918)", "assay": "DRUGMATRIX: Carbonic Anhydrase II enzyme inhibition (substrate: 4-Nitrophenyl acetate (4-NPA))", "format": "tissue-based, Erythrocyte", "details": "erythrocyte; Not Active = under 50% inhibition at 10 µM", "values": [
      {"smiles": "COc1cccc2c1C(=O)c1c(O)c3c(c(O)c1C2=O)C[C@@](O)(C(C)=O)C[C@@H]3O[C@H]1C[C@H](N)[C@H](O)[C@H](C)O1", "note": "[DAUNORUBICIN]", "IC50": "Not Active"},
      {"smiles": "O=C(O)c1cc(-c2ccc(F)cc2F)ccc1O", "note": "[DIFLUNISAL]", "IC50": "Not Active"},
      {"smiles": "C[S+](C)[O-]", "note": "[DIMETHYL SULFOXIDE]", "IC50": "Not Active"},
      {"smiles": "CC1=NN(c2ccccc2)C(=O)C1", "note": "[EDARAVONE]", "IC50": "Not Active"},
      {"smiles": "CC(C)C[C@H]1C(=O)N2CCC[C@H]2[C@]2(O)O[C@](NC(=O)[C@@H]3C=C4c5cccc6[nH]cc(c56)C[C@H]4N(C)C3)(C(C)C)C(=O)N12", "note": "[ERGOCRYPTINE]", "IC50": "Not Active"},
      {"smiles": "C[C@]12CC[C@@H]3c4ccc(O)cc4CC[C@H]3[C@@H]1C[C@@H](O)[C@@H]2O", "note": "[ESTRIOL]", "IC50": "Not Active"},
      {"smiles": "CC(O)(P(=O)(O)O)P(=O)(O)O", "note": "[ETIDRONIC ACID]", "IC50": "Not Active"}
    ]},
    {"target": "Voltage-gated inwardly rectifying potassium channel KCNH2 (Homo sapiens, UniProt Q12809)", "sequence (Q12809 whole entry)": "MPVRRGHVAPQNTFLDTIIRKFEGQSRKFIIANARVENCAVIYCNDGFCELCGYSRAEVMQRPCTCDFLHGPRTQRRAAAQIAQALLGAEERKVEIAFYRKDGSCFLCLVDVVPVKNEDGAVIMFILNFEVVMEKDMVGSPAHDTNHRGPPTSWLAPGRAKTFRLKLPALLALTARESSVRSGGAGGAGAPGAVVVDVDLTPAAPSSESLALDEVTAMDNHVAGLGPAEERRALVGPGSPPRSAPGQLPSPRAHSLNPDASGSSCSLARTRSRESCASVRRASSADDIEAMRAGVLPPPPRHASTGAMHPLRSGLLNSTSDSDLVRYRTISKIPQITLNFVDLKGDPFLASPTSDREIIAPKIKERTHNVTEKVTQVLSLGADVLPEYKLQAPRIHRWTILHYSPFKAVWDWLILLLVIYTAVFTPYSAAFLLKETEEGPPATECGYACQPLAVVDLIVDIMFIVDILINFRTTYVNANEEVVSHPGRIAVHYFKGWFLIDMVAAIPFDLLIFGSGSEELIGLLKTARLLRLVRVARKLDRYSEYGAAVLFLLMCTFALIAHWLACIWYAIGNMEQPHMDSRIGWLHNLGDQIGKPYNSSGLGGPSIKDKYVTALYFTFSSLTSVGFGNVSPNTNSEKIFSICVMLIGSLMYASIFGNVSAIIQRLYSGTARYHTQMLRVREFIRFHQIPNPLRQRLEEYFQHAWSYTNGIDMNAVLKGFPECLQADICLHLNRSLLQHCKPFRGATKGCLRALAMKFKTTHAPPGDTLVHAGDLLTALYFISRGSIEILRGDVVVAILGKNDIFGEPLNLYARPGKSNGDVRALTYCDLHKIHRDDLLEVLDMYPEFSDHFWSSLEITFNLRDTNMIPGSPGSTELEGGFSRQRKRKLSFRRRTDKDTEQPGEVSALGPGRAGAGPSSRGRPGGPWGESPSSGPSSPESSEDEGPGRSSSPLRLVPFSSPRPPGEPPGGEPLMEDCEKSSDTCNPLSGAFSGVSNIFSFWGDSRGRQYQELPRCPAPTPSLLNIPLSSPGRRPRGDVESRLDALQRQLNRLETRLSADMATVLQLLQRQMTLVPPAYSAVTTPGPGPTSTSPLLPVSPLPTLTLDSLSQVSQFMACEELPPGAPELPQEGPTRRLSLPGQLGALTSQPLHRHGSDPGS", "details": "hek293", "values": [
      {"smiles": "COc1cccc2c1C(=O)c1c(O)c3c(c(O)c1C2=O)C[C@@](O)(C(C)=O)C[C@@H]3O[C@H]1C[C@H](N)[C@H](O)[C@H](C)O1", "note": "[DAUNORUBICIN]", "IC50": "Not Active", "Ki": "Not Active"},
      {"smiles": "O=C(O)c1cc(-c2ccc(F)cc2F)ccc1O", "note": "[DIFLUNISAL]", "IC50": "Not Active", "Ki": "Not Active"},
      {"smiles": "C[S+](C)[O-]", "note": "[DIMETHYL SULFOXIDE]", "IC50": "Not Active", "Ki": "Not Active"},
      {"smiles": "CC1=NN(c2ccccc2)C(=O)C1", "note": "[EDARAVONE]", "IC50": "Not Active", "Ki": "Not Active"},
      {"smiles": "CC(C)C[C@H]1C(=O)N2CCC[C@H]2[C@]2(O)O[C@](NC(=O)[C@@H]3C=C4c5cccc6[nH]cc(c56)C[C@H]4N(C)C3)(C(C)C)C(=O)N12", "note": "[ERGOCRYPTINE]", "IC50": "Not Active", "Ki": "Not Active"},
      {"smiles": "C[C@]12CC[C@@H]3c4ccc(O)cc4CC[C@H]3[C@@H]1C[C@@H](O)[C@@H]2O", "note": "[ESTRIOL]", "IC50": "Not Active", "Ki": "Not Active"},
      {"smiles": "CC(O)(P(=O)(O)O)P(=O)(O)O", "note": "[ETIDRONIC ACID]", "IC50": "Not Active", "Ki": "Not Active"}
    ]}
  ]
}
